Data from patent US9617267B2, “Compounds and methods for kinase modulation, and indications therefor” (Plexxikon Inc., priority 2009, dated 2017).
Read-outs that look alike come from different tables or passages of the source.

Legend:
B-Raf [1] = molecular target: B-Raf (Homo sapiens (Human), UniProt P15056); assay: B-Raf kinase activity biochemical assay (AlphaScreen, biotin-MEK1 phosphorylation); settings: B-Raf
Procedure, shortened: (§1)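 Compounds from a 0.1 mM DMSO stock were tested at 8 serially diluted points. Kinase reactions with 100 μM ATP (final) ran 45 min at room temperature, then were stopped with EDTA buffer containing anti-phospho-MEK1/2 antibody plus streptavidin donor and protein A acceptor beads.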

B-Raf [2] = assay: as above; settings: for Biochemical activity ratio B/V600E: ratio of IC50 B-Raf / B-Raf V600E; for Biochemical activity ratio B/C: ratio of IC50 B-Raf / c-Raf-1
Procedure, shortened: as §1

B-Raf V600E = B-Raf V600E (Homo sapiens (Human), UniProt P15056, V600E); assay: B-Raf V600E kinase activity biochemical assay (AlphaScreen, biotin-MEK1 phosphorylation); settings: for IC50: B-Raf V600E; for Biochemical activity ratio V600E/C: ratio of IC50 B-Raf V600E / c-Raf-1
Procedure, shortened: as §1

c-Raf-1 = c-Raf-1 (Homo sapiens, UniProt P04049); assay: c-Raf-1 kinase activity biochemical assay (AlphaScreen, biotin-MEK1 phosphorylation)
Procedure, shortened: as §1

[3] = Relative solubility by turbidity threshold concentration in aqueous buffers (pH 1.5, 4.5, 6.8, 7.4); type: physicochemical; settings: for turbidity threshold (L, M, H) 1.4: pH 1.4 [sic] (method: SGF pH 1.5); for turbidity threshold (L, M, H) 4.5: pH 4.5 (SIF); for turbidity threshold (L, M, H) 6.8: pH 6.8 (SIF); for turbidity threshold (L, M, H) 7.4: pH 7.4 (HEPES)
Procedure, shortened: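 Solubility class (high >250 μM, moderate 31.3–250 μM, low <31.3 μM) comes from the concentration where absorbance reaches a 0.01 threshold, averaged across 490/535/650 nm. Samples were compound dilutions from DMSO stock, 1 μL into 99 μL buffer at pH 1.5, 4.5, 6.8 or 7.4.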

CYP1A2 = CYP1A2 (Homo sapiens (Human), UniProt P05177); assay: CYP enzyme inhibition, fluorescent substrate (CEC)
Procedure, shortened: (§2)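 IC50 derived from loss of fluorescent metabolite across a 10-point 1:1 dilution series. CYP2D6: 1.5 pmol enzyme, 1.5 μM AMMC, 30 min at 37 °C, 409/530 nm; CYP1A2: 0.5 pmol, 5 μM CEC, 15 min, 409/460 nm. Compounds pre-incubated 10 min in NADPH-regenerating mix.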

CYP2C19 = CYP2C19 (Homo sapiens (Human), UniProt P33261); assay: CYP enzyme inhibition, fluorescent substrate (CEC)
Procedure, shortened: (§3)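 10-pt 1:1 serial dilution in co-factor mix (DMSO stock 100 mM); 10 min preincubation, 37 °C; reaction at 37 °C. Readout: fluorescent metabolite of probe substrate. IC50 from signal vs [compound].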

CYP2C9 = CYP2C9 (Homo sapiens (Human), UniProt P11712); assay: CYP enzyme inhibition, fluorescent substrate (MFC)
Procedure, shortened: as §3

CYP2D6 = CYP2D6 (Homo sapiens (Human), UniProt P10635); assay: CYP enzyme inhibition, fluorescent substrate (AMMC); type: in vitro ADME; settings: read-out: Cyp IC50 2D6
Procedure, shortened: as §2

CYP3A4(BFC) = CYP3A4(BFC) (Homo sapiens (Human), UniProt P08684); assay: CYP enzyme inhibition, fluorescent substrate BFC
Procedure, shortened: as §3

CYP3A4(BQ) = CYP3A4(BQ) (Homo sapiens (Human), UniProt P08684); assay: CYP enzyme inhibition, fluorescent substrate BQ
Procedure, shortened: as §3

[4] = read-out: Cyp IC50 1A2, CYP1A2, substrate CEC
[5] = read-out: Cyp IC50 2C19, CYP2C19, substrate CEC
[6] = read-out: Cyp IC50 3A4(BQ), CYP3A4, substrate BQ

CYP2C9, sequence (P11712 whole entry): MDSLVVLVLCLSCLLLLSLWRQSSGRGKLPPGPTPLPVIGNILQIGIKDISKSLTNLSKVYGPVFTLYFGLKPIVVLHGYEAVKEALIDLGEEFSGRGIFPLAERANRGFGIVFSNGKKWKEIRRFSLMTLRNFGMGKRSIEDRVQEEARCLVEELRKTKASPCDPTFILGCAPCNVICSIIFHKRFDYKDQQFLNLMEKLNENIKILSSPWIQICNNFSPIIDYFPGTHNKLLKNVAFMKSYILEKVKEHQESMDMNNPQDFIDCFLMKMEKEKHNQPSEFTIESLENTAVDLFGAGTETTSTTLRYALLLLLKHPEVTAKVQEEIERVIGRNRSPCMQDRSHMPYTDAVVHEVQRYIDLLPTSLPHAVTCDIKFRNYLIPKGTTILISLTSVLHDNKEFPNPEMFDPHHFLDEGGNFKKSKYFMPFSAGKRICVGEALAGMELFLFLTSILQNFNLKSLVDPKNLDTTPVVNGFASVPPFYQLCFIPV
CYP3A4(BQ), sequence (P08684 whole entry): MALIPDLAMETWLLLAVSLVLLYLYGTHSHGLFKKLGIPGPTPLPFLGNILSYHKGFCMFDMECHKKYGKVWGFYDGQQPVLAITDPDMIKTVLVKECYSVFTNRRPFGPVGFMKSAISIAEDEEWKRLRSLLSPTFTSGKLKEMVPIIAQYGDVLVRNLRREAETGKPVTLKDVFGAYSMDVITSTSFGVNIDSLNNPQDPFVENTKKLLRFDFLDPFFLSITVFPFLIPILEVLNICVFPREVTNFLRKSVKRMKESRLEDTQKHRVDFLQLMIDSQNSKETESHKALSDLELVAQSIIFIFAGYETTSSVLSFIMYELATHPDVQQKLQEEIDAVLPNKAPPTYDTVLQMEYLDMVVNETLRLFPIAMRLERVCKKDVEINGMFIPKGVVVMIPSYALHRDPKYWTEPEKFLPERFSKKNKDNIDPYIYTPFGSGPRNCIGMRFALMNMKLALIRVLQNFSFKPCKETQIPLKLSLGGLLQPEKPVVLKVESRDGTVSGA
CYP3A4(BFC), sequence (P08684 whole entry): as above
CYP2C19, sequence (P33261 whole entry): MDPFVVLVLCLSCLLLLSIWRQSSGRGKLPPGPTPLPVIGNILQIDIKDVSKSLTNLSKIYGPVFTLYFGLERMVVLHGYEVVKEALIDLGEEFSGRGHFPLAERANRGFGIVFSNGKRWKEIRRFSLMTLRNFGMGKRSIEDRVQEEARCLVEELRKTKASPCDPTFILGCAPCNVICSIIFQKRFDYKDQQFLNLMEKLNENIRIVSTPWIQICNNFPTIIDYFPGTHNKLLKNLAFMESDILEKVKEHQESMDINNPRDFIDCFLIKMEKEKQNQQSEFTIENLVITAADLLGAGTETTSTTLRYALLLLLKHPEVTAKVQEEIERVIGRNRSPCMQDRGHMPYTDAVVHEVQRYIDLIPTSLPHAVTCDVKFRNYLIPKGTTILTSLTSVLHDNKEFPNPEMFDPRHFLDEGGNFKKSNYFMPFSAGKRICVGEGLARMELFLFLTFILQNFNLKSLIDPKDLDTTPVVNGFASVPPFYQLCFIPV
B-Raf V600E, sequence (P15056 whole entry V600E): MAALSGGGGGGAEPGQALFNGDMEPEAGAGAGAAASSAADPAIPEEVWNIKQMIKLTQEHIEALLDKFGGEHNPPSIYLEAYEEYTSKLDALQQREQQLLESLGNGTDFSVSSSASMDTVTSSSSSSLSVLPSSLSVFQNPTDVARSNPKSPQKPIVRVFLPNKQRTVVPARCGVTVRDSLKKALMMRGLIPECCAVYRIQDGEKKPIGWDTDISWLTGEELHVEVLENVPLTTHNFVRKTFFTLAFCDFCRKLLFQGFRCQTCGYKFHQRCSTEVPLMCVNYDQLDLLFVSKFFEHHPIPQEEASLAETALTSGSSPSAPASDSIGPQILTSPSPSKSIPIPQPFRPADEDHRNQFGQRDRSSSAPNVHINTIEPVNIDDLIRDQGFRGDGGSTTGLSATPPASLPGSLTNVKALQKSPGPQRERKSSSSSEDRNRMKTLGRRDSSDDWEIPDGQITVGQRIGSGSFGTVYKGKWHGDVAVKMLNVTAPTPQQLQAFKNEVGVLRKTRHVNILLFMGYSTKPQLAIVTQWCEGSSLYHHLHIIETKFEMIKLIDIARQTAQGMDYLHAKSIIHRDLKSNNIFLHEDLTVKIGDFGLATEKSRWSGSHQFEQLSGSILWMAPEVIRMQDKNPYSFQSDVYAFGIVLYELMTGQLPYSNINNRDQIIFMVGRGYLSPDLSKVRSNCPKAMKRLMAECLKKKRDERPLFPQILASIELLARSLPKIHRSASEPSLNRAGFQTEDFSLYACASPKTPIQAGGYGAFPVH
c-Raf-1, sequence (P04049 whole entry, looked up): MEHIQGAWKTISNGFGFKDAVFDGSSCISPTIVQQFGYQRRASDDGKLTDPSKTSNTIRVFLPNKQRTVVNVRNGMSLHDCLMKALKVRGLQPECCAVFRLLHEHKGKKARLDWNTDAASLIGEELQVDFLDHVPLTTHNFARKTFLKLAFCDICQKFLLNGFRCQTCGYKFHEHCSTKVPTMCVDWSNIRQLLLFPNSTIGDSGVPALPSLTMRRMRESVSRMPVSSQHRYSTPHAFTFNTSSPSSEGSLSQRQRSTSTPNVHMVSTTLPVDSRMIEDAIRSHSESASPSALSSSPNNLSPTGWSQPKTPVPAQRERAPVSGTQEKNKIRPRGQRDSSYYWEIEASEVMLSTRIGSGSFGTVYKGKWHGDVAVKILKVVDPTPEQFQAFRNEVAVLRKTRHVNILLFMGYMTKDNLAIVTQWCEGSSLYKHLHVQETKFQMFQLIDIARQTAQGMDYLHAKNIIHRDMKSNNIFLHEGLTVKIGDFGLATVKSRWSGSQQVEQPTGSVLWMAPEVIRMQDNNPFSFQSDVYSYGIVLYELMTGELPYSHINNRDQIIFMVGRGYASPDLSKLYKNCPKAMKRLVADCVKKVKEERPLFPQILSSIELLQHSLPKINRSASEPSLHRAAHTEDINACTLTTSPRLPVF
B-Raf (Homo sapiens (Human), UniProt P15056), sequence (P15056 whole entry): as the sequence (P15056 whole entry V600E) above, with E600V counted along it
CYP1A2, sequence (P05177 whole entry): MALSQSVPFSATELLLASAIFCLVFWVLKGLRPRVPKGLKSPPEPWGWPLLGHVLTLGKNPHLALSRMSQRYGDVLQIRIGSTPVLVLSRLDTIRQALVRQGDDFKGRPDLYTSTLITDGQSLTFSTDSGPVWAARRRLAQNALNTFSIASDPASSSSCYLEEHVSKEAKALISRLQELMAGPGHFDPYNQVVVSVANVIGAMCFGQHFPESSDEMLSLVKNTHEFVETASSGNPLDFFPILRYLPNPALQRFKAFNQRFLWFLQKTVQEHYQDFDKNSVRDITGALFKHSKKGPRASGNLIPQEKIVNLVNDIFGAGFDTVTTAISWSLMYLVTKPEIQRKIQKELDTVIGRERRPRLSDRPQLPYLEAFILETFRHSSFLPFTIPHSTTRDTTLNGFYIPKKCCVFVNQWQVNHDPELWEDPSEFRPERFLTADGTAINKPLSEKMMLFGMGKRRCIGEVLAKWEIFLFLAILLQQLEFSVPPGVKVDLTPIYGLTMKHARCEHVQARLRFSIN
CYP2D6, sequence (P10635 whole entry): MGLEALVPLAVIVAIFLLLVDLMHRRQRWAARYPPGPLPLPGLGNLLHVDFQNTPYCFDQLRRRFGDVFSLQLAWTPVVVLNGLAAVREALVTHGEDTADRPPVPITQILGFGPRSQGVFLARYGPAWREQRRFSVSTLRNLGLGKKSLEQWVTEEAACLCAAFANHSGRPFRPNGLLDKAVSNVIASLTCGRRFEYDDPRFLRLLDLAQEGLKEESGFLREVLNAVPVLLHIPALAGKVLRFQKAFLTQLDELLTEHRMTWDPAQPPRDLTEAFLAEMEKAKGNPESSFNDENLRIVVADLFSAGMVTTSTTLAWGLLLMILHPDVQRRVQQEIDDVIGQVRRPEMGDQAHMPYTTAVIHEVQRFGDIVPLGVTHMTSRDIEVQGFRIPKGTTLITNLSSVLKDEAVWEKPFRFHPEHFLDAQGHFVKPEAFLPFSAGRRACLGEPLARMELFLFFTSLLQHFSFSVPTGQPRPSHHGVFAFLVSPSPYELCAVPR

| Structure (SMILES) | IC50 (B-Raf [1]) | Biochemical activity ratio B/V600E (B-Raf [2]) | Biochemical activity ratio B/C (B-Raf [2]) | IC50 (B-Raf V600E) | Biochemical activity ratio V600E/C (B-Raf V600E) | IC50 (c-Raf-1) | turbidity threshold (L, M, H) 1.4 [3] | turbidity threshold (L, M, H) 4.5 [3] | turbidity threshold (L, M, H) 6.8 [3] | turbidity threshold (L, M, H) 7.4 [3] | IC50 (CYP1A2; [4]) | IC50 (CYP2C19; [5]) | IC50 (CYP2C9) | IC50 (CYP2D6) | IC50 (CYP3A4(BFC)) | IC50 (CYP3A4(BQ); [6]) | IC50 (CYP2C19) | also measured |
| --- | --- | --- | --- | --- | --- | --- | --- | --- | --- | --- | --- | --- | --- | --- | --- | --- | --- | --- |
| Cc1cc(C)cc(S(=O)(=O)Nc2ccc(F)c(C(=O)c3c[nH]c4ncnc(NC(C)C)c34)c2F)c1 [P-1045, N-[2,4-Difluoro-3-(4-isopropylamino-7H-pyrrolo[2,3-d]pyrimidine-5-carbonyl)-phenyl]-3,5-dimethyl-benzenesulfonamide] | > 0.1 µM | 0.1-10 | >10 | < 0.1 µM | 0.1-10 | < 0.1 µM | M (moderate solubility if the threshold concentration is 31.3 μM to 250 μM) | L (low solubility if the threshold concentration is <31.3 μM) | L (low solubility if the threshold concentration is <31.3 μM) | L (low solubility if the threshold concentration is <31.3 μM) | > 10 µM | < 5 µM | 5 to 10 µM | > 10 µM | 5 to 10 µM | > 10 µM | – | – |
| O=C(c1c(F)ccc(NS(=O)(=O)c2ccc(C(F)(F)F)cc2)c1F)c1c[nH]c2ncnc(OCC3CC3)c12 [P-1053, N-[3-(4-Cyclopropylmethoxy-7H-pyrrolo[2,3-d]pyrimidine-5-carbonyl)-2,4-difluoro-phenyl]-4-trifluoromethyl-benzenesulfonamide] | < 0.1 µM | 0.1-10 | 0.1-10 | > 0.1 µM | >10 | < 0.1 µM | L (low solubility if the threshold concentration is <31.3 μM) | L (low solubility if the threshold concentration is <31.3 μM) | L (low solubility if the threshold concentration is <31.3 μM) | L (low solubility if the threshold concentration is <31.3 μM) | – | – | 5 to 10 µM | > 10 µM | – | > 10 µM | 5 to 10 µM | IC50 (CYP1A2; human, 15 min): > 10 µM; IC50 (CYP3A4(BFC); read-out: Cyp IC50 3A4(BFC), CYP3A4, substrate BFC): > 10 µM |
| O=C(c1c(F)ccc(NS(=O)(=O)c2ccc(C(F)(F)F)cc2)c1F)c1c[nH]c2ncnc(NCC3CC3)c12 [P-1052, N-{3-[4-(Cyclopropylmethyl-amino)-7H-pyrrolo[2,3-d]pyrimidine-5-carbonyl]-2,4-difluoro-phenyl}-4-trifluoromethyl-benzenesulfonamide] | < 0.1 µM | 0.1-10 | >10 | < 0.1 µM | >10 | < 0.1 µM | L (low solubility if the threshold concentration is <31.3 μM) | L (low solubility if the threshold concentration is <31.3 μM) | L (low solubility if the threshold concentration is <31.3 μM) | L (low solubility if the threshold concentration is <31.3 μM) | > 10 µM | < 5 µM | – | > 10 µM | 5 to 10 µM | > 10 µM | – | IC50 (CYP2C9; read-out: Cyp IC50 2C9, CYP2C9, substrate MFC): < 5 µM |
| CCCS(=O)(=O)Nc1ccc(F)c(C(=O)c2c[nH]c3ncc(C)c(Cl)c23)c1F [P-2001, Propane-1-sulfonic acid [3-(4-chloro-5-methyl-1H-pyrrolo[2,3-b]pyridine-3-carbonyl)-2,4-difluoro-phenyl]-amide] | < 0.1 µM | 0.1-10 | 0.1-10 | < 0.1 µM | 0.1-10 | < 0.1 µM | M (moderate solubility if the threshold concentration is 31.3 μM to 250 μM) | M (moderate solubility if the threshold concentration is 31.3 μM to 250 μM) | M (moderate solubility if the threshold concentration is 31.3 μM to 250 μM) | M (moderate solubility if the threshold concentration is 31.3 μM to 250 μM) | – | – | > 10 µM | > 10 µM | > 10 µM | – | 5 to 10 µM | IC50 (CYP1A2): > 10 µM; IC50 (CYP3A4(BQ)): > 10 µM |
